One data set deals with human T-lymphocyte (CEM). Briefly: Cytostatic activity against tumor cell lines (cell number by Coulter counter). The data set is classed as cell-based. The note with it: 72 h, concentration inhibiting cell proliferation by 50%, three days incubation, mean of three repeats. On the procedure:
(§1) The IC50 was defined as the compound concentration required to inhibit cell proliferation by 50%. The therapeutic index (TI) was calculated as the ratio of the compound concentration producing toxicity (IC50) to the concentration needed to exert the desired ‘therapeutic’ effect on biofilms of Salmonella and Pseudomonas, indicated by the BIC50 (dose needed to prevent biofilm formation by 50%). The higher the therapeutic index, the broader the safety window of the compound.
(§2) Murine leukemia (L1210), human T-lymphocyte (CEM) and human cervix carcinoma (HeLa) were suspended at 300,000–500,000 cells/mL of culture medium, and 100 µL of a cell suspension was added to 100 µL of an appropriate dilution of the test compounds in 200 µL-wells of 96-well microtiter plates. After incubation at 37 °C for two (L1210), three (CEM) or four (HeLa) days, the cell number was determined using a Coulter counter. The IC50 was defined as the compound concentration required to inhibit cell proliferation by 50%.

Data set [1] relates to human cervix carcinoma (HeLa). The data set is described as above. The note with it: 96 h, concentration inhibiting cell proliferation by 50%, four days incubation, mean of three repeats. The data set is classed as cell-based. On the procedure: as §1, §2
Another data set has as its system murine leukemia (L1210). The description is as above. The data set is classed as cell-based. The note with it: Mus musculus, L1210, 48 h; concentration inhibiting cell proliferation by 50%; two days incubation; mean of three repeats. As to the method: as §1, §2
For another data set, the system named is C. elegans. The class given is in vivo, Caenorhabditis elegans. The note with it: for C. elegans % survival at 25 µM: after 7 days relative to viability at day 0, mean of at least two repeats. On the procedure:
Eggs of a double mutant (glp-4Dsek-1D) of C. elegans were grown on NGM/OP50 agar plates (NGM agar plates on the surface inoculated with 100 µL of an overnight culture of OP50 Escherichia coli and stored at 4 °C until use) at 25 °C until all nematodes had reached the L4 stage. Worms were collected and washed with M9 buffer (3 g/L KH2PO4, 6 g/L Na2HPO4, 5 g/L NaCl, 1 mM MgSO4). For toxicity testing, 40 to 50 worms were suspended in 250 μL M9 (supplemented with 10 µg/mL cholesterol, 75 µg/mL ampicillin and 100 µg/mL kanamycin) buffer in each well of 24-well microtiter plates, in the presence or absence (0.5% DMSO control) of 25, 100 or 200 µM of the test compounds and grown for 7 days at 25 °C. The percentage survival of the worms in the presence or absence of anti-biofilm compounds was calculated after 7 days relative to their viability at day 0.

The subject of a further data set is P. aeruginosa biofilm. The note with it: concentration preventing biofilm formation (at 25 °C) by 50%; as previously reported ref 13, 14, 15, 16; read-out: BIC50 P. aeruginosa; cited from earlier work.
Another data set has as its system S. Typhimurium biofilm. The note with it: concentration preventing biofilm formation (at 25 °C) by 50%; as previously reported ref 13, 14, 15, 16; read-out: BIC50 S. Typhimurium; cited from earlier work.

Here are results for 30 compounds from article PMC6271933, “Evaluation of the Toxicity of 5-Aryl-2-Aminoimidazole-Based Biofilm Inhibitors against Eukaryotic Cell Lines, Bone Cells and the Nematode Caenorhabditis elegans” (Molecules, 2014).

Values joined by “and” are separate entries in the source; they are usually repeats but may differ in a detail not shown here. Identical values can stand only once. Where only a bound is given, the exact number is not on record here.

For `c1ccc(-c2cnc(NC3CCCC3)[nH]2)cc1` [compound 20], the IC50 in the data set with human T-lymphocyte (CEM) is 293 µM; in data set [1], 27.3 µM; in the data set on murine leukemia (L1210), 27.3 µM; with P. aeruginosa biofilm it was 33.8 µM; in the data set with S. Typhimurium biofilm, 52.9 µM. The “C. elegans % survival at 25 µM” value in the data set with C. elegans was found to be 98.1%.

In the case of `CCCCCCCCn1c(-c2cccc(Br)c2)cnc1N` [compound 16], the IC50 in the data set with human T-lymphocyte (CEM) was 9.7 µM; in data set [1] it was 8 µM; with murine leukemia (L1210), 6.9 µM; with P. aeruginosa biofilm, 40.6 µM; in the data set with S. Typhimurium biofilm it was 11.2 µM.

Consider `Nc1ncc(-c2ccc(-c3ccccc3)cc2)[nH]1` [compound 3], for which the IC50 in the data set on human T-lymphocyte (CEM) is 13.6 µM; in data set [1], 34 µM; in the data set with murine leukemia (L1210), 37.4 µM; with P. aeruginosa biofilm it was 8.6 µM; with S. Typhimurium biofilm, 17.3 µM.

As for `Nc1ncc(-c2ccc(Cl)cc2)[nH]1` [compound 2], the IC50 with human T-lymphocyte (CEM) is 49.6 µM; in data set [1] it was 72.3 µM; in the data set with murine leukemia (L1210), 77.5 µM; in the data set on P. aeruginosa biofilm it was 3.5 µM; in the data set on S. Typhimurium biofilm it was 16 µM. Besides, in the data set on C. elegans, the “C. elegans % survival at 25 µM” value came to 84.9%.

With `c1ccc(-c2cn(CCCCNc3ncc(-c4ccccc4)[nH]3)nn2)cc1` [compound 37], the IC50 with human T-lymphocyte (CEM) was 459 µM; in data set [1], 107 µM; in the data set on murine leukemia (L1210), 218 µM; with P. aeruginosa biofilm, 19 µM; in the data set with S. Typhimurium biofilm, 40 µM. Moreover, the “C. elegans % survival at 25 µM” value with C. elegans was 86.4%.

Regarding `CCCCNc1ncc(-c2ccc(Cl)cc2)[nH]1` [compound 21], the IC50 with human T-lymphocyte (CEM) is 375 µM; in data set [1], 34.7 µM; in the data set on murine leukemia (L1210) it was 40 µM.

Consider `CCCCCCCCn1c(-c2ccc(SC)cc2)cnc1N` [compound 15, N1-octyl-5-[4-SMePh]-2AI], for which the IC50 is 7.2 µM in the data set on human T-lymphocyte (CEM); 6.3 µM in data set [1]; 4.1 µM in the data set with murine leukemia (L1210); 2.8 µM in the data set with P. aeruginosa biofilm; 6.7 µM in the data set on S. Typhimurium biofilm.

With `Nc1ncc(-c2ccccc2)[nH]1` [compound 1], the IC50 was 94.3 µM in the data set with human T-lymphocyte (CEM); 145 µM in data set [1]; 62.9 µM in the data set with murine leukemia (L1210); 72.6 µM in the data set on P. aeruginosa biofilm; 130 µM in the data set with S. Typhimurium biofilm. The “C. elegans % survival at 25 µM” value with C. elegans was found to be 89.8%. Besides, in the data set on C. elegans (100 µM, 7 days of exposure), the “effect on C. elegans survival at 100 µM” value is on record as “none of the compounds significantly affect”. Moreover, the “effect on C. elegans survival at 200 µM” value with C. elegans (200 µM, 7 days of exposure) was “do not significantly affect survival”.

As for `Nc1ncc(-c2ccc([N+](=O)[O-])cc2)[nH]1` [compound 4], the IC50 is 63.7 µM in the data set on human T-lymphocyte (CEM); 108 µM in data set [1]; 83.3 µM in the data set with murine leukemia (L1210); 34.5 µM in the data set with P. aeruginosa biofilm; 17.6 µM in the data set on S. Typhimurium biofilm. Moreover, the “C. elegans % survival at 25 µM” value in the data set on C. elegans came to 97.3%.

As for `Clc1ccc(-c2cnc(NC3CCCC3)[nH]2)cc1Cl` [compound 29], the IC50 in the data set with human T-lymphocyte (CEM) was 156 µM; in data set [1], 79.8 µM; in the data set with murine leukemia (L1210), 76.1 µM; with P. aeruginosa biofilm, 7.9 µM; in the data set on S. Typhimurium biofilm, 5.7 µM.

On to `Nc1ncc(-c2ccc(-c3ccccc3)cc2)n1C1CCCCCCC1` [compound 13], for which the IC50 with human T-lymphocyte (CEM) was 4.9 µM; in data set [1], 6.9 µM; in the data set with murine leukemia (L1210), 6.9 µM; in the data set with P. aeruginosa biofilm it was 3.2 µM; with S. Typhimurium biofilm, ~22.9 µM and 22.9 µM.

For the compound `CCCCCCCCCCCCCn1c(-c2ccc(Cl)cc2)cnc1N` [compound 8], the IC50 in the data set with human T-lymphocyte (CEM) was 6.4 µM; in data set [1] it was 4.5 µM; in the data set with murine leukemia (L1210), 7.2 µM; in the data set with P. aeruginosa biofilm it was 33.9 µM; in the data set with S. Typhimurium biofilm, 19.5 µM.

With `Cc1ccc(-c2nc(N)[nH]c2-c2ccc(Cl)cc2)cc1` [compound 32], the IC50 was 10.2 µM with human T-lymphocyte (CEM), 9.5 µM in data set [1], 12.3 µM with murine leukemia (L1210) and 12.9 µM with S. Typhimurium biofilm.

In the case of `Nc1nc(-c2ccc(C(F)(F)F)cc2)c(-c2ccc(Cl)cc2)[nH]1` [compound 33], the IC50 was 35.5 µM in the data set with human T-lymphocyte (CEM), 26.1 µM in data set [1], 41.5 µM in the data set on murine leukemia (L1210) and 10.8 µM in the data set on S. Typhimurium biofilm.

In the case of `Nc1ncc(-c2ccc(-c3ccccc3)cc2)n1C1CCCC1` [compound 11], the IC50 in the data set on human T-lymphocyte (CEM) is 2.9 µM; in data set [1] it was 8.2 µM; with murine leukemia (L1210), 4.3 µM; in the data set on P. aeruginosa biofilm, 353 µM; with S. Typhimurium biofilm, 7.5 µM.

Turning to `CCCCCNc1ncc(-c2ccc(Cl)cc2)[nH]1` [compound 23], the IC50 in the data set with human T-lymphocyte (CEM) was 323 µM; in data set [1] it was 19.8 µM; in the data set on murine leukemia (L1210), 22 µM; in the data set on P. aeruginosa biofilm, ~6.3 µM and 6.3 µM; in the data set with S. Typhimurium biofilm, over 400 µM.

Take `Brc1ccc(-c2cnc(NC3CCCC3)[nH]2)cc1` [compound 28]: the IC50 in the data set on human T-lymphocyte (CEM) was 674 µM; in data set [1], 32.7 µM; with murine leukemia (L1210), 32.7 µM; in the data set with P. aeruginosa biofilm, 7.2 µM; with S. Typhimurium biofilm, 12.1 µM.

Regarding `CC(C)CNc1ncc(-c2ccccc2)[nH]1` [compound 19], the IC50 with human T-lymphocyte (CEM) was 383 µM; in data set [1], 91.4 µM; in the data set with murine leukemia (L1210), 83.6 µM; in the data set on P. aeruginosa biofilm it was 1.2 µM; in the data set with S. Typhimurium biofilm, 4.9 µM.

Consider `COc1ccc(-c2cnc(NCCCn3cc(-c4ccc(Br)cc4)nn3)[nH]2)cc1` [compound 38], for which the IC50 is 597 µM with human T-lymphocyte (CEM); 16.8 µM in data set [1]; 18.4 µM with murine leukemia (L1210); 42.7 µM in the data set on P. aeruginosa biofilm; 91.2 µM with S. Typhimurium biofilm.

As for `CCCCCCCCn1c(-c2ccc(F)cc2)cnc1N` [compound 14], the IC50 with human T-lymphocyte (CEM) was 7.3 µM; in data set [1], 8.6 µM; in the data set with murine leukemia (L1210), 3.5 µM; in the data set with P. aeruginosa biofilm, 4.9 µM; in the data set on S. Typhimurium biofilm, ~10.8 µM and 10.8 µM.

Regarding `CC(C)CNc1ncc(-c2ccc(Br)cc2)[nH]1` [compound 26], the IC50 in the data set on human T-lymphocyte (CEM) is 306 µM; in data set [1] it was 22.6 µM; in the data set with murine leukemia (L1210) it was 31.7 µM; in the data set on P. aeruginosa biofilm it was 1.2 µM; in the data set with S. Typhimurium biofilm it was 2.9 µM.

`CCCCCNc1ncc(-c2ccc(Br)cc2)[nH]1` [compound 27]: the IC50 was 375 µM in the data set with human T-lymphocyte (CEM); 16.3 µM in data set [1]; 14.9 µM in the data set on murine leukemia (L1210); 10.2 µM in the data set with P. aeruginosa biofilm; 3.1 µM in the data set on S. Typhimurium biofilm.

For `Nc1ncc(-c2ccc(-c3ccccc3)cc2)n1C1CCCCCC1` [compound 12], the IC50 in the data set with human T-lymphocyte (CEM) is 5.4 µM; in data set [1] it was 6.6 µM; in the data set with murine leukemia (L1210), 8.1 µM; with P. aeruginosa biofilm, 6.6 µM; in the data set on S. Typhimurium biofilm, ~12.5 µM and 12.5 µM.

For the compound `Nc1nc(-c2ccc(Cl)cc2)c(-c2ccccc2)[nH]1` [compound 31], the IC50 is 48.2 µM with human T-lymphocyte (CEM), 40.8 µM in data set [1], 59.3 µM in the data set with murine leukemia (L1210) and 46.9 µM in the data set with S. Typhimurium biofilm.

For the compound `CCCCNc1ncc(-c2ccccc2)[nH]1` [compound 18], the IC50 was 667 µM in the data set with human T-lymphocyte (CEM); 19.5 µM in data set [1]; 46.4 µM with murine leukemia (L1210); 31.8 µM in the data set on P. aeruginosa biofilm; 25.3 µM with S. Typhimurium biofilm.

As for `COc1ccc(-c2nc(N)[nH]c2-c2ccccc2)cc1` [compound 30], the IC50 is 52.8 µM with human T-lymphocyte (CEM), 45.2 µM in data set [1], 64.1 µM with murine leukemia (L1210) and 77.1 µM in the data set on S. Typhimurium biofilm.

On to `CCCCCCCn1c(-c2ccc(-c3ccccc3)cc2)cnc1N` [compound 9], for which the IC50 in the data set with human T-lymphocyte (CEM) was 8.1 µM; in data set [1], 8.7 µM; with murine leukemia (L1210), 7.5 µM; with P. aeruginosa biofilm, 25.2 µM; in the data set on S. Typhimurium biofilm, 9.3 µM.

Regarding `CCCCCOc1ccc(Cc2nc(N)n(Cc3ccccc3)c2-c2ccc(C)cc2)cc1` [compound 35], the IC50 in the data set with human T-lymphocyte (CEM) was 8.4 µM; in data set [1] it was 14.8 µM; with murine leukemia (L1210), 8.6 µM; in the data set with P. aeruginosa biofilm, 27.4 µM; with S. Typhimurium biofilm, 10.3 µM.

As for `COc1cccc(CCn2c(-c3ccc(Cl)c(Cl)c3)cnc2N)c1` [compound 17], the IC50 is 8.6 µM in the data set with human T-lymphocyte (CEM), 6.6 µM in data set [1], 6.9 µM in the data set with murine leukemia (L1210) and over 400 µM with S. Typhimurium biofilm.

With `CCCCCCCCn1c(-c2ccc(-c3ccccc3)cc2)cnc1N` [compound 10], the IC50 in the data set with human T-lymphocyte (CEM) is 8.3 µM; in data set [1], 6.6 µM; with murine leukemia (L1210), 7.8 µM; in the data set on P. aeruginosa biofilm it was 8.9 µM; in the data set on S. Typhimurium biofilm, 3.3 µM.
